Laboratory results taken from patent US20140045856A1, “4-Methyl-2,3,5,9,9b-pentaaza-cyclopenta[a]naphthalenes” (BOEHRINGER INGELHEIM INTERNATIONAL GMBH, priority 2012, published 2014).

Test system: not listed separately
Experiment: Metabolic stability in pooled liver microsomes
Type: in vitro ADME
Settings: human liver microsomes, 37° C., 1 mg/mL microsomal protein, test compound 1 μM, NADPH
Procedure: The metabolic stability of the compounds according to the invention has been investigated as follows:
The metabolic degradation of the test compound was assayed at 37° C. with pooled liver microsomes from various species. The final incubation volume of 100 μl per time point contains TRIS buffer pH 7.6 at room temperature (0.1 M), magnesium chloride (5 mM), microsomal protein (1 mg/mL for human and dog, 0.5 mg/mL for other species) and the test compound at a final concentration of 1 μM. Following a short preincubation period at 37° C., the reactions were initiated by addition of betanicotinamide adenine dinucleotide phosphate, reduced form (NADPH, 1 mM), and terminated by transferring an aliquot into solvent after different time points. […] The half-life was determined by the slope of the semi-logarithmic plot of the concentration-time profile.

Half-life - t½	SMILES
2.17 h	Cc1ccc(C(C)(C)O)cc1-c1nnc2c(C)nc3ccc(C4CC4)nc3n12 [Example 75]
2.17 h	Cc1nc2cccnc2n2c(-c3cc(CC(C)(C)O)ccc3Cl)nnc12 [Example 82]
2.17 h	Cc1nc2ccc(C3CC3)nc2n2c(-c3cc(C(C)(C)O)ccc3Cl)nnc12 [Example 85]
2.17 h	Cc1nc2cccnc2n2c(-c3cc(C4(O)CCC4)ccc3Cl)nnc12 [Example 87]
2.17 h	Cc1ccc2nc(C)c3nnc(-c4cc(C5(O)CCC5)ccc4Cl)n3c2n1 [Example 89]
2.17 h	Cc1nc2cccnc2n2c(-c3cc(C4(O)CCOCC4)ccc3Cl)nnc12 [Example 93]
2.17 h	Cc1ccc2nc(C)c3nnc(-c4cc(C5(O)CCC5)ccc4C)n3c2n1 [Example 102]

Same assay, conditions: pooled liver microsomes, pH 7.6; human liver microsomes, 37° C., 1 mg/mL microsomal protein, test compound 1 μM, NADPH; read-out: Half-life - t½

SMILES	half-life at 1 μM
Cc1ccc2nc(C)c3nnc(-c4cc(C(O)C(C)C)ccc4Cl)n3c2n1 (stereo not drawn) [Example 59]	0.817 h
Cc1ccc(C(C)(C)CO)cc1-c1nnc2c(C)nc3ccc(C4CC4)nc3n12 [Example 100]	0.2 h

Target: PDE2A (Homo sapiens, UniProt O00408)
Experiment: PDE 2A assay with fluorescent substrate (IMAP, fluorescence polarization)
Type: biochemical
Settings: read-out: PDE2 IC50

Sequence of PDE2A (O00408 whole entry, species assumed): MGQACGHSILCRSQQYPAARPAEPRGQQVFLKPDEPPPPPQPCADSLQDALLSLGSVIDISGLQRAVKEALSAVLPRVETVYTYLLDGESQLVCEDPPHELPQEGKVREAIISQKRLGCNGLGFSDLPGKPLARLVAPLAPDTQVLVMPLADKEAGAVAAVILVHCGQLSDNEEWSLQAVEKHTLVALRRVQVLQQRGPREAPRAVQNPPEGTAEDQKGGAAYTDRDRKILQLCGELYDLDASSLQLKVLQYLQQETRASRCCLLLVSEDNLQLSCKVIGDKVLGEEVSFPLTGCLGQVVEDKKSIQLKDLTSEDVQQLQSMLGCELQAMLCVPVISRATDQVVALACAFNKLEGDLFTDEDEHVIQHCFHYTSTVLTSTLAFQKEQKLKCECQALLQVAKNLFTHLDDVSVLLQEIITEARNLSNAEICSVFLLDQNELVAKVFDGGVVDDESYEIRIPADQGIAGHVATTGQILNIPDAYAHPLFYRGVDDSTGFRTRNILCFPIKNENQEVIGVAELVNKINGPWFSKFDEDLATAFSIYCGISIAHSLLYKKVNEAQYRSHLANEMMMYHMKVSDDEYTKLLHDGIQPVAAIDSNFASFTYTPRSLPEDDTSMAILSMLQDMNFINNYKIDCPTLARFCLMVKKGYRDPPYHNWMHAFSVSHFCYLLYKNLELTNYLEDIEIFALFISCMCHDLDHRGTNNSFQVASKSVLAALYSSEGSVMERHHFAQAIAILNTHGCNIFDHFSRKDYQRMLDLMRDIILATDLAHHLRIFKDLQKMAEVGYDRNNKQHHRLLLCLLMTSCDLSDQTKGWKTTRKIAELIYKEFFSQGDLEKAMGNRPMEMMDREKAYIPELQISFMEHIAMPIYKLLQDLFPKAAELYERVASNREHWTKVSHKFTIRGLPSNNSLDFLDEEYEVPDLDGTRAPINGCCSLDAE

IC50	SMILES
8 nM	Cc1ccc2nc(C)c3nnc(-c4cc(C(O)C(C)C)ccc4Cl)n3c2n1 (stereo not drawn) [Example 59]
3 nM	Cc1nc2ccc(C3CC3)nc2n2c(-c3cc(CCC(C)(C)O)ccc3F)nnc12 [Example 66]
2 nM	Cc1ccc(CCC(C)(C)O)cc1-c1nnc2c(C)nc3ccc(C4CC4)nc3n12 [Example 68]
10 nM	Cc1nc2ccc(C3CC3)nc2n2c(-c3cc(CC(C)(C)O)ccc3F)nnc12 [Example 80]
199 nM	Cc1nc2cccnc2n2c(-c3cc(CC(C)(C)O)ccc3Cl)nnc12 [Example 82]
4 nM	Cc1nc2ccc(C3CC3)nc2n2c(-c3cc(CC(C)(C)O)ccc3Cl)nnc12 [Example 83]
6 nM	Cc1nc2ccc(C3CC3)nc2n2c(-c3cc(C4(O)CCC4)ccc3F)nnc12 [Example 84]
6 nM	Cc1nc2ccc(C3CC3)nc2n2c(-c3cc(C(C)(C)O)ccc3Cl)nnc12 [Example 85]
74 nM	Cc1nc2cccnc2n2c(-c3cc(C4(O)CCC4)ccc3Cl)nnc12 [Example 87]
1 nM	Cc1nc2ccc(C3CC3)nc2n2c(-c3cc(C4(O)CCC4)ccc3Cl)nnc12 [Example 88]
86 nM	Cc1nc2cccnc2n2c(-c3cc(C4(O)CCOCC4)ccc3Cl)nnc12 [Example 93]
103 nM	Cc1ccc2nc(C)c3nnc(-c4cc(C5(O)CCC5)ccc4C)n3c2n1 [Example 102]

SMILES	IC50
Cc1ccc(C(C)(C)CO)cc1-c1nnc2c(C)nc3ccc(C4CC4)nc3n12 [Example 100]	17 nM

Target: hERG channel (Homo sapiens, UniProt Q12809)
Experiment: hERG channel assay (whole-cell patch clamp, HEK293 cells transfected with hERG cDNA)
Type: cell-based
Settings: 35° C.
Description: hERG (Human Ether-à-Go-Go-Related Gene)-Channel Assay
hERG channel inhibition of compounds of the present invention has been investigated as follows:
HEK (human embryonic kidney) 293 cells were stably transfected with hERG cDNA. Cells were superfused with a bath solution containing (mM): NaCl (137), KCl (4.0), MgCl2 (1.0), CaCl2 (1.8), Glucose (10), HEPES (10), pH 7.4 with NaOH. Patch pipettes were made from borosilicate glass tubing using a horizontal puller and filled with pipette solution containing (mM): K-aspartate (130), MgCl2 (5.0), EGTA (5.0), K2ATP (4.0), HEPES (10.0), pH 7.2 with KOH. Resistance of the microelectrodes was in the range between 2 and 5 MΩ.
Stimulation and Recording:
Membrane currents were recorded using an EPC-10 patch clamp amplifier and PatchMaster software. hERG-mediated membrane currents were recorded at 35° C., using the whole-cell configuration of the patch-clamp technique. Transfected HEK293 cells were clamped at a holding potential of −60 mV and hERG-mediated inactivating tail currents were elicited using a pulse pattern with fixed amplitudes (activation/inactivation: 40 mV for 2000 ms; recovery: […]; ramp to 40 mV in 2 ms; inactivating tail current: 40 mV for 50 ms) repeated at 15 s intervals. During each inter-pulse interval 4 pulses scaled down by a factor of 0.2 were recorded for a P/n leak subtraction procedure. […] compensation was employed up to a level that safely allowed recording devoid of ringing.
Compound Preparation and Application:
The different concentrations of the test compound were applied sequentially on each of the different cells investigated. A steady state level of baseline current was measured for at least 6 sweeps prior to the application of the first test compound concentration.
The test compound was dissolved in DMSO to yield a master stock solution which was diluted further in DMSO to stock solutions needed for the lower concentrations. Final dilutions in extracellular buffer were prepared freshly from these stocks by a 1:1000 dilution step each before starting the experiments.
Data analysis and IC50 determination:
Peak current amplitudes were measured 3 ms after the ramp to +40 mV. For baseline and each concentration the peak currents of the three last sweeps before application of the next concentration were averaged. Residual currents ( 1/10) were calculated for each cell as the fraction of actual average peak current and average baseline peak current.
The logistic concentration-response curve of the following form was fitted to the residual current data using a genetic algorithm:
C: actual concentration of compound (in μM) IC50: half-inhibitory concentration (in μM) p: Hill slope

Sequence of hERG channel (Q12809 whole entry): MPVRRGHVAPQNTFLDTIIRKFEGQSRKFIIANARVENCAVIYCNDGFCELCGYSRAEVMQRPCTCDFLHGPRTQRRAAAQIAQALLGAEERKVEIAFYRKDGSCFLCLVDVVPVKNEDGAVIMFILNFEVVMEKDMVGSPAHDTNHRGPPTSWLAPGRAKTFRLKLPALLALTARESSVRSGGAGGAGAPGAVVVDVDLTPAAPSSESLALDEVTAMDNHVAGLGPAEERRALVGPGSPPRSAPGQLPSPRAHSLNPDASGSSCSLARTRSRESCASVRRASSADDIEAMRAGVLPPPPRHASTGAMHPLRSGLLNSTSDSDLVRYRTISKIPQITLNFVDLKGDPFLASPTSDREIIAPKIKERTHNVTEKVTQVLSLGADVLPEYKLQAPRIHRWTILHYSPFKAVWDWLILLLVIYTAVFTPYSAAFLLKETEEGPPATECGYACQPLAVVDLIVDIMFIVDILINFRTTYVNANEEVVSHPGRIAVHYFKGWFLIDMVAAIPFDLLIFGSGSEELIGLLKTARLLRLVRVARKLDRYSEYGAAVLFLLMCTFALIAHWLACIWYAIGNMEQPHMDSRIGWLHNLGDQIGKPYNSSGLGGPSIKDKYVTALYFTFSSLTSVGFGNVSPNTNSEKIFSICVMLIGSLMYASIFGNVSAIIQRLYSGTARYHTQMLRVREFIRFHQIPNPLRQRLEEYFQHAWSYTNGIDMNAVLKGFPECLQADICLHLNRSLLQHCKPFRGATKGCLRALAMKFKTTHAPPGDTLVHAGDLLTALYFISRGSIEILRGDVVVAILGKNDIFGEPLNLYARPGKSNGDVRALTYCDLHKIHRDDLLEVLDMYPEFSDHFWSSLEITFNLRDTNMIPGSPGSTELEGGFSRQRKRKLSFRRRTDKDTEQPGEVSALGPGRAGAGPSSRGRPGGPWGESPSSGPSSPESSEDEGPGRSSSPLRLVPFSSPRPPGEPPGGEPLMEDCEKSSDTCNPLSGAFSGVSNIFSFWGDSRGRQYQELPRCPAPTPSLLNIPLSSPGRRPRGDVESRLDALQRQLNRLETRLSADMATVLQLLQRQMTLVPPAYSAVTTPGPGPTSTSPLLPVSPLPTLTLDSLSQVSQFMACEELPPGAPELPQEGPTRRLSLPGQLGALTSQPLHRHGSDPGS

SMILES	IC50
Cc1ccc2nc(C)c3nnc(-c4cc(OCCO)ccc4Cl)n3c2n1 [Example 28]	> 10000 nM
Cc1nc2ccc(C3CC3)nc2n2c(-c3cc(OC4CCOCC4)ccc3Cl)nnc12 [Example 32a]	> 10000 nM
Cc1nc2ccc(C3CC3)nc2n2c(-c3cc(CCC(C)(C)O)ccc3F)nnc12 [Example 66]	> 10000 nM
Cc1ccc(CCC(C)(C)O)cc1-c1nnc2c(C)nc3ccc(C4CC4)nc3n12 [Example 68]	8300 nM
Cc1ccc(C(C)(C)O)cc1-c1nnc2c(C)nc3ccc(C4CC4)nc3n12 [Example 75]	> 10000 nM
Cc1nc2ccc(C3CC3)nc2n2c(-c3cc(CC(C)(C)O)ccc3F)nnc12 [Example 80]	> 10000 nM
Cc1nc2cccnc2n2c(-c3cc(CC(C)(C)O)ccc3Cl)nnc12 [Example 82]	> 10000 nM
Cc1nc2ccc(C3CC3)nc2n2c(-c3cc(CC(C)(C)O)ccc3Cl)nnc12 [Example 83]	> 10000 nM
Cc1nc2ccc(C3CC3)nc2n2c(-c3cc(C4(O)CCC4)ccc3F)nnc12 [Example 84]	6300 nM
Cc1nc2ccc(C3CC3)nc2n2c(-c3cc(C(C)(C)O)ccc3Cl)nnc12 [Example 85]	> 10000 nM
Cc1nc2cccnc2n2c(-c3cc(C4(O)CCC4)ccc3Cl)nnc12 [Example 87]	> 10000 nM
Cc1nc2ccc(C3CC3)nc2n2c(-c3cc(C4(O)CCC4)ccc3Cl)nnc12 [Example 88]	> 10000 nM
Cc1nc2cccnc2n2c(-c3cc(C4(O)CCOCC4)ccc3Cl)nnc12 [Example 93]	> 10000 nM

Target: PDE10 (Homo sapiens, UniProt Q9Y233)
Experiment: PDE10 assay with fluorescent substrate (IMAP, fluorescence polarization)
Type: biochemical
Settings: not given

Sequence of PDE10 (Q9Y233 whole entry, species assumed): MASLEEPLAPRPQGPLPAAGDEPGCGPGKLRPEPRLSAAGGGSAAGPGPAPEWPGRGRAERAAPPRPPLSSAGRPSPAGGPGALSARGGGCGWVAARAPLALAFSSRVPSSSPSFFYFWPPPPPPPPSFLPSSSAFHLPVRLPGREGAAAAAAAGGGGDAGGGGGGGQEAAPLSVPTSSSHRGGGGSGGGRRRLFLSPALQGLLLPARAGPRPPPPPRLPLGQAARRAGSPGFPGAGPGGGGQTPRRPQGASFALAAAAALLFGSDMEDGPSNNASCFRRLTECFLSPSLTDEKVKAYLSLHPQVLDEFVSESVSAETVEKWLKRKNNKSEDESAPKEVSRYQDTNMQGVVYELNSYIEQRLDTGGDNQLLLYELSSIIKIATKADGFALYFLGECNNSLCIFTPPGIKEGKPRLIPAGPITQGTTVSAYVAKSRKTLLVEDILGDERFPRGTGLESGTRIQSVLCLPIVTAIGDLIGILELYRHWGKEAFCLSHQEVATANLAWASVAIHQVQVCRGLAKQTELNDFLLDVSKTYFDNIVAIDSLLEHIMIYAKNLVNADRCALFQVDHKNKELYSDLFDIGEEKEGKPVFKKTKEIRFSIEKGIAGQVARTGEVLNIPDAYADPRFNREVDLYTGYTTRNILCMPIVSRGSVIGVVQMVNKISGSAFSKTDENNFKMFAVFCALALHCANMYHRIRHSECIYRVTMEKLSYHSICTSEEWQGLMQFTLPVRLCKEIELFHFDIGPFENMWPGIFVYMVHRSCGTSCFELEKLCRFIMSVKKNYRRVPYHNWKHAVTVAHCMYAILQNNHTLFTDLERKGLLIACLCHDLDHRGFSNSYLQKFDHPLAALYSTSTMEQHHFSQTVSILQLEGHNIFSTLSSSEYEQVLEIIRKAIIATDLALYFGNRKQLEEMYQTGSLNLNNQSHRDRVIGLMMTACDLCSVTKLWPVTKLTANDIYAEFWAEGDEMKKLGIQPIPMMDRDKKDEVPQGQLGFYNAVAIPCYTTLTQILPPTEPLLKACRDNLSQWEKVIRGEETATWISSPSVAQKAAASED

IC50	SMILES
7390 nM	Cc1nc2ccc(C3CC3)nc2n2c(-c3cc(OC4CCOCC4)ccc3Cl)nnc12 [Example 32a]
936 nM	Cc1ccc2nc(C)c3nnc(-c4cc(C(O)C(C)C)ccc4Cl)n3c2n1 (stereo not drawn) [Example 59]
674 nM	Cc1nc2ccc(C3CC3)nc2n2c(-c3cc(CCC(C)(C)O)ccc3F)nnc12 [Example 66]
1010 nM	Cc1ccc(CCC(C)(C)O)cc1-c1nnc2c(C)nc3ccc(C4CC4)nc3n12 [Example 68]
5410 nM	Cc1nc2ccc(C3CC3)nc2n2c(-c3cc(CC(C)(C)O)ccc3F)nnc12 [Example 80]
5620 nM	Cc1nc2cccnc2n2c(-c3cc(CC(C)(C)O)ccc3Cl)nnc12 [Example 82]
8820 nM	Cc1nc2ccc(C3CC3)nc2n2c(-c3cc(CC(C)(C)O)ccc3Cl)nnc12 [Example 83]
565 nM	Cc1nc2ccc(C3CC3)nc2n2c(-c3cc(C4(O)CCC4)ccc3F)nnc12 [Example 84]
4320 nM	Cc1nc2ccc(C3CC3)nc2n2c(-c3cc(C(C)(C)O)ccc3Cl)nnc12 [Example 85]
2590 nM	Cc1nc2cccnc2n2c(-c3cc(C4(O)CCC4)ccc3Cl)nnc12 [Example 87]
187 nM	Cc1ccc2nc(C)c3nnc(-c4cc(C5(O)CCC5)ccc4Cl)n3c2n1 [Example 89]
6110 nM	Cc1nc2cccnc2n2c(-c3cc(C4(O)CCOCC4)ccc3Cl)nnc12 [Example 93]
2260 nM	Cc1ccc2nc(C)c3nnc(-c4cc(C5(O)CCC5)ccc4C)n3c2n1 [Example 102]

SMILES	IC50
Cc1ccc(C(C)(C)CO)cc1-c1nnc2c(C)nc3ccc(C4CC4)nc3n12 [Example 100]	3860 nM

Test system: not listed separately
Experiment: Animal experiments and sample analysis: plasma, brain and CSF concentration
Type: in vivo
Settings: brain; rat; 2 h between administration and CSF sampling; doses of 10.0 or 5 μmol/kg; read-out: conc brain
Procedure: Test compounds were administered to animals (rat) different routes at doses of 10.0 or 5 μmol/kg, (both oral and intravenous). After compound administration, the animals were sacrificed in a CO2 chamber and CSF samples were carefully collected by puncture of the cisterna magna. Immediately after CSF sampling, blood was taken by heart puncture and brains were dissected out. Blood was collected in EDTA-coated microvettes and plasma was prepared by centrifugation. Concentration of the test compounds in plasma, CSF or brain homogenate was determined using HPLC-MS-MS.

concentration at 2 h	SMILES
383 nM	Cc1ccc(C(C)(C)O)cc1-c1nnc2c(C)nc3ccc(C4CC4)nc3n12 [Example 75]

Same assay, conditions: brain; rat; 2 h between administration and CSF sampling; read-out: c(brain)/c(plasma)

Kp at 2 h	SMILES
0.34	Cc1ccc(C(C)(C)O)cc1-c1nnc2c(C)nc3ccc(C4CC4)nc3n12 [Example 75]

Same assay, conditions: plasma; rat; 2 h between administration and CSF sampling; doses of 10.0 or 5 μmol/kg; read-out: conc plasma

concentration at 2 h	SMILES
1130 nM	Cc1ccc(C(C)(C)O)cc1-c1nnc2c(C)nc3ccc(C4CC4)nc3n12 [Example 75]

Same assay, conditions: rat; 2 h between administration and CSF sampling; doses of 10.0 or 5 μmol/kg; read-out: conc CSF

concentration at 2 h	SMILES
31 nM	Cc1ccc(C(C)(C)O)cc1-c1nnc2c(C)nc3ccc(C4CC4)nc3n12 [Example 75]

Same assay, conditions: rat; 2 h between administration and CSF sampling; read-out: c(CSF)/c(plasma)

Kp at 2 h	SMILES
0.03	Cc1ccc(C(C)(C)O)cc1-c1nnc2c(C)nc3ccc(C4CC4)nc3n12 [Example 75]
